In patent publication US20080031967A1, “Compositions, products and methods for controlling weight in a mammal” (priority 2005, published 2008):

Columns and labels:
[1] = test system: isolated rat adipocytes; conditions: dissolved oxygen monitor; cited from earlier work
[2] = test system: primary rat adipocytes; experiment: thermogenesis assay: oxygen consumption by adipocytes (oxygen probe); format: cell-based; conditions: fatty acid oxidation inhibitors
Description: Thermogenesis was measured using an oxygen probe to monitor oxygen consumption by the adipocytes as they oxidize fatty acids. This assay was developed in primary rat adipocytes (isolated as above) using a YSI 5300 monitor equipped with oxygen-sensitive electrodes in an 8-chamber air tight apparatus. […] Since oxygen consumption can be induced by both the Kreb's cycle (glucose metabolism) and β-oxidation (fatty acid metabolism), fatty acid oxidation inhibitors were used to test whether the increase in oxygen consumption is indeed induced by fatty acid oxidation. Valproic acid inhibits the entry of fatty acid into the mitochondria and 4-pentenoic acid inhibits β-ketothiolase (the enzyme in the last step of β-oxidation). […] It has been discovered that the use of the above-listed thermogenic agents in accordance with the present invention results in the effective modulation of thermogenesis in mammals. By “effective,” it is meant that administration of the thermogenic agents of the present invention results in a 10 to 15% increase in thermogenic activity in the in vitro oxygen consumption assay. Without wishing to be bound by theory, it is believed that the thermogenic agents of the present invention function by increasing the rate at which fatty acids are transported into the mitochondria and oxidized in the cell.

[3] = test system: primary rat adipocytes; conditions: validation compound, stated as known; cited from earlier work

Compound	effect on oxygen consumption induced by norepinephrine [2]	other results
leptin: adipocyte-derived hormone		effect on beta-oxidation in adipocytes [1]: stimulates beta-oxidation
C=CCCC(=O)O [4-pentenoic acid]	inhibit oxygen consumption induced by norepinephrine	
NC[C@H](O)c1ccc(O)c(O)c1 [norepinephrine]		effect on rate of fatty acid oxidation and oxygen consumption [3]: increase the rate of fatty acid oxidation and oxygen consumption
CCCC(CCC)C(=O)O [Valproic acid]	inhibit oxygen consumption induced by norepinephrine	
